In the NIST ThermoML archive (doi:10.1021/je900194v):
“And” between values parts separate entries of the source, which are not always exact repeats. Equal values may be shown once.

How the values were obtained:
[1] = 101 kPa, Liquid; for viscosity: Capillary tube (Ostwald / Ubbelohde) method; for mass density: Vibrating tube method
[2] = xn = mol fraction of the nth substance listed; conditions: 101 kPa, Liquid; for viscosity: Capillary tube (Ostwald / Ubbelohde) method; for mass density: Vibrating tube method

Cc1ccccc1C [1,2-dimethylbenzene]
[1]
Conditions | mass density [kg/m3] | viscosity [mPa·s]
298.15 K | 875.08 | 0.758
308.15 K | 866.62 | 0.665
318.15 K | 858.12 | 0.589

Cc1ccccc1C [1,2-dimethylbenzene] + COC(=O)CCCCl
[2], x2 = 0
Conditions | mass density [kg/m3] | viscosity [mPa·s]
298.15 K | 875.08 | 0.758
308.15 K | 866.62 | 0.665
318.15 K | 858.12 | 0.589

Cc1cccc(C)c1 [1,3-dimethylbenzene]
[1]
Conditions | mass density [kg/m3] | viscosity [mPa·s]
298.15 K | 859.83 | 0.587
308.15 K | 851.19 | 0.524
318.15 K | 842.49 | 0.471

Cc1cccc(C)c1 [1,3-dimethylbenzene] + COC(=O)CCCCl
[2], x2 = 0
Conditions | mass density [kg/m3] | viscosity [mPa·s]
298.15 K | 859.83 | 0.587
308.15 K | 851.19 | 0.524
318.15 K | 842.49 | 0.471

Cc1ccc(C)cc1 [1,4-dimethylbenzene]
[1]
Conditions | mass density [kg/m3] | viscosity [mPa·s]
298.15 K | 856.68 | 0.609
308.15 K | 847.96 | 0.541
318.15 K | 839.2 | 0.484

Cc1ccc(C)cc1 [1,4-dimethylbenzene] + COC(=O)CCCCl
[2], x2 = 0
Conditions | mass density [kg/m3] | viscosity [mPa·s]
298.15 K | 856.68 | 0.609
308.15 K | 847.96 | 0.541
318.15 K | 839.2 | 0.484

c1ccccc1 [benzene]
[1]
Conditions | mass density [kg/m3] | viscosity [mPa·s]
298.15 K | 873.61 | 0.603
308.15 K | 862.28 | 0.533
318.15 K | 852.08 | 0.466

c1ccccc1 [benzene] + COC(=O)CCCCl
[2], x2 = 0
Conditions | mass density [kg/m3] | viscosity [mPa·s]
298.15 K | 873.61 | 0.603
308.15 K | 862.28 | 0.533
318.15 K | 852.08 | 0.466

COC(=O)CCCCl [methyl 4-chlorobutanoate]
[1]
Conditions | mass density | viscosity [mPa·s]
298.15 K | 1116.24 kg/m3 | 1.519
308.15 K | 1105.22 kg/m3 and 1105.23 kg/m3 | 1.279
318.15 K | 1094.13 kg/m3 | 1.089

COC(=O)CCCCl [methyl 4-chlorobutanoate] + Cc1ccc(C)cc1
[2]
Conditions | mass density, 298.15 K [kg/m3] | mass density, 308.15 K [kg/m3] | mass density, 318.15 K [kg/m3] | viscosity, 298.15 K [mPa·s] | viscosity, 308.15 K [mPa·s] | viscosity, 318.15 K [mPa·s]
x1 = 0.0999 | 882.47 | 873.48 | 864.45 | 0.662 | 0.586 | 0.522
x1 = 0.2001 | 908.43 | 899.17 | 889.87 | 0.714 | 0.629 | 0.561
x1 = 0.3 | 934.33 | 924.84 | 915.3 | 0.775 | 0.679 | 0.6
x1 = 0.4001 | 960.27 | 950.54 | 940.77 | 0.847 | 0.738 | 0.651
x1 = 0.4999 | 986.16 | 976.2 | 966.2 | 0.927 | 0.806 | 0.705
x1 = 0.6 | 1012.09 | 1001.91 | 991.69 | 1.023 | 0.886 | 0.772
x1 = 0.7 | 1038.03 | 1027.62 | 1017.19 | 1.133 | 0.978 | 0.846
x1 = 0.8 | 1063.99 | 1053.37 | 1042.71 | 1.255 | 1.077 | 0.926
x1 = 0.9 | 1090.06 | 1079.25 | 1068.37 | 1.385 | 1.179 | 1.008
x1 = 1 | 1116.24 | 1105.23 | 1094.13 | 1.519 | 1.279 | 1.089

COC(=O)CCCCl [methyl 4-chlorobutanoate] + Cc1cccc(C)c1
[2]
Conditions | mass density, 298.15 K [kg/m3] | mass density, 308.15 K [kg/m3] | mass density, 318.15 K [kg/m3] | viscosity, 298.15 K [mPa·s] | viscosity, 308.15 K [mPa·s] | viscosity, 318.15 K [mPa·s]
x1 = 0.0999 | 885.23 | 876.33 | 867.38 | 0.639 | 0.571 | 0.512
x1 = 0.1999 | 910.66 | 901.49 | 892.27 | 0.7 | 0.624 | 0.55
x1 = 0.2999 | 936.14 | 926.72 | 917.26 | 0.769 | 0.674 | 0.596
x1 = 0.399 | 961.41 | 951.74 | 942.03 | 0.843 | 0.737 | 0.649
x1 = 0.4999 | 987.21 | 977.32 | 967.37 | 0.928 | 0.807 | 0.706
x1 = 0.5995 | 1012.73 | 1002.6 | 992.39 | 1.022 | 0.882 | 0.77
x1 = 0.6996 | 1038.43 | 1028.06 | 1017.63 | 1.128 | 0.966 | 0.839
x1 = 0.7992 | 1064.11 | 1053.51 | 1042.83 | 1.238 | 1.062 | 0.92
x1 = 0.8999 | 1090.15 | 1079.3 | 1068.38 | 1.368 | 1.163 | 1.004
x1 = 1 | 1116.24 | 1105.22 | 1094.13 | 1.519 | 1.279 | 1.089

COC(=O)CCCCl [methyl 4-chlorobutanoate] + Cc1ccccc1
[2]
Conditions | mass density, 298.15 K [kg/m3] | mass density, 308.15 K [kg/m3] | mass density, 318.15 K [kg/m3] | viscosity, 298.15 K [mPa·s] | viscosity, 308.15 K [mPa·s] | viscosity, 318.15 K [mPa·s]
x1 = 0.1 | 891.28 | 881.71 | 872.09 | 0.614 | 0.551 | 0.486
x1 = 0.2 | 919.47 | 909.69 | 899.87 | 0.68 | 0.599 | 0.53
x1 = 0.3 | 946.73 | 936.79 | 926.77 | 0.753 | 0.662 | 0.582
x1 = 0.4001 | 973.21 | 963.07 | 952.89 | 0.829 | 0.731 | 0.635
x1 = 0.5 | 998.81 | 988.49 | 978.14 | 0.919 | 0.796 | 0.7
x1 = 0.6 | 1023.69 | 1013.23 | 1002.74 | 1.021 | 0.883 | 0.767
x1 = 0.7 | 1047.84 | 1037.22 | 1026.57 | 1.123 | 0.962 | 0.831
x1 = 0.8 | 1071.31 | 1060.54 | 1049.74 | 1.246 | 1.062 | 0.913
x1 = 0.8998 | 1094.05 | 1083.16 | 1072.21 | 1.38 | 1.17 | 1.001
x1 = 1 | 1116.24 | 1105.22 | 1094.13 | 1.519 | 1.279 | 1.089

COC(=O)CCCCl [methyl 4-chlorobutanoate] + Cc1ccccc1C
[2]
Conditions | mass density, 298.15 K [kg/m3] | mass density, 308.15 K [kg/m3] | mass density, 318.15 K [kg/m3] | viscosity, 298.15 K [mPa·s] | viscosity, 308.15 K [mPa·s] | viscosity, 318.15 K [mPa·s]
x1 = 0.1 | 899.36 | 890.63 | 881.84 | 0.814 | 0.71 | 0.627
x1 = 0.2001 | 923.55 | 914.54 | 905.46 | 0.872 | 0.757 | 0.688
x1 = 0.3 | 947.67 | 938.39 | 929.03 | 0.935 | 0.808 | 0.707
x1 = 0.3998 | 971.75 | 962.19 | 952.59 | 1.001 | 0.863 | 0.752
x1 = 0.4992 | 995.83 | 985.99 | 976.14 | 1.074 | 0.92 | 0.8
x1 = 0.6 | 1020.27 | 1010.17 | 1000.07 | 1.153 | 0.983 | 0.855
x1 = 0.7 | 1044.53 | 1034.19 | 1023.83 | 1.235 | 1.05 | 0.907
x1 = 0.8 | 1068.71 | 1058.13 | 1047.53 | 1.322 | 1.12 | 0.965
x1 = 0.9 | 1092.68 | 1081.88 | 1071.02 | 1.415 | 1.194 | 1.025
x1 = 1 | 1116.24 | 1105.22 | 1094.13 | 1.519 | 1.279 | 1.089

COC(=O)CCCCl [methyl 4-chlorobutanoate] + c1ccccc1
[2]
Conditions | mass density, 298.15 K [kg/m3] | mass density, 308.15 K [kg/m3] | mass density, 318.15 K [kg/m3] | viscosity, 298.15 K [mPa·s] | viscosity, 308.15 K [mPa·s] | viscosity, 318.15 K [mPa·s]
x1 = 0.1 | 905.57 | 894.74 | 883.87 | 0.669 | 0.579 | 0.507
x1 = 0.2001 | 935.29 | 924.42 | 913.49 | 0.731 | 0.634 | 0.553
x1 = 0.3 | 962.99 | 952.12 | 941.13 | 0.799 | 0.69 | 0.601
x1 = 0.4001 | 989.08 | 978.2 | 967.18 | 0.875 | 0.754 | 0.661
x1 = 0.5 | 1013.66 | 1002.77 | 991.75 | 0.96 | 0.828 | 0.719
x1 = 0.5999 | 1036.89 | 1026.01 | 1014.99 | 1.054 | 0.907 | 0.785
x1 = 0.7 | 1058.82 | 1047.97 | 1036.94 | 1.157 | 0.99 | 0.853
x1 = 0.8 | 1079.42 | 1068.49 | 1057.55 | 1.271 | 1.08 | 0.927
x1 = 0.9 | 1098.6 | 1087.62 | 1076.65 | 1.391 | 1.18 | 1.007
x1 = 1 | 1116.24 | 1105.22 | 1094.13 | 1.519 | 1.279 | 1.089

Cc1ccccc1 [toluene]
[1]
Conditions | mass density [kg/m3] | viscosity [mPa·s]
298.15 K | 862.18 | –
308.15 K | 852.81 | 0.499
318.15 K | 843.4 | 0.446

Cc1ccccc1 [toluene] + COC(=O)CCCCl
[2], x2 = 0
Conditions | mass density [kg/m3] | viscosity [mPa·s]
298.15 K | 862.18 | 0.561
308.15 K | 852.81 | 0.499
318.15 K | 843.4 | 0.446
